Source: paper PMC9579956 (RSC Medicinal Chemistry, 2022)

Target: Mycobacterium thermoresistible (Mtr) LpqY (Mycolicibacterium thermoresistibile, UniProt G7CES0)
Format: binding
Details: single dose MST screen against LpqY

Chain of Mycobacterium thermoresistible (Mtr) LpqY (G7CES0 29-471): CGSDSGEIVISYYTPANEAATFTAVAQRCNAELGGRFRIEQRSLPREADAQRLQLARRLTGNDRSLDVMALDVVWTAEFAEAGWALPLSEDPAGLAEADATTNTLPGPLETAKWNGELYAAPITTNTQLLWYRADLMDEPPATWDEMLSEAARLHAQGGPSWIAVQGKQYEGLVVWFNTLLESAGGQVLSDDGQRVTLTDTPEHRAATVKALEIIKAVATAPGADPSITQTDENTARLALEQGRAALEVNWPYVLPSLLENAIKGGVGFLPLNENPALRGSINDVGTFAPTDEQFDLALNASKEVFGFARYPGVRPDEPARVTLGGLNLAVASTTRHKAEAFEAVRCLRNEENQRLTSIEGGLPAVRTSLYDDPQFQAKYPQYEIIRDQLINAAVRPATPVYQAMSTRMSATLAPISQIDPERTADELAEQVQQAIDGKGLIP

Point of comparison: `C[C@H](C(N)=O)N1CCCC[C@@H]1c1ccc(OCc2cccc(F)c2)cc1` [MMV676270], “Pathogen Box screen signal/noise ratio” value 0.9. Against it:
- CCCCc1ccc(NC(=O)Nc2ccc(O[C@H]3CCCC[C@@H]3N(C)c3ccccc3)c(F)c2)cc1 [MMV676063] — lower, 0.0
- CC(=O)N(CCN(C(=O)c1ccc(F)cc1)c1ccccc1)c1ccccc1 [MMV676064] — lower, 0.35
- Clc1cccc(CO[C@H]2CCc3ccccc3[C@@H]2n2ccnn2)c1 [MMV676159] — higher, 1.0
- c1ccc(Oc2ccc(-c3cc(CN4CCOCC4)[nH]n3)cc2)cc1 [MMV676161] — higher, 1.1
- O=C(Nc1ccccc1-c1nc2c(C(=O)O)cccc2o1)c1ccccc1 [MMV676162] — the same, 0.9
- Nc1ncnc2c1c(Cc1cccc3ccccc13)nn2CC1CCNCC1 [MMV676182] — lower, 0.0
- COC(=O)c1cccc2oc(-c3cccc(OC)c3NC(=O)c3cc(-c4ccccc4)on3)nc12 [MMV676186] — lower, 0.1
- CC(C)C(Oc1cccc2ccccc12)C(=O)O (stereo not shown) [MMV676191] — the same, 0.9
- O=C(c1ccc(F)cc1)N(CCNc1ccccc1)c1ccccc1 [MMV676204] — lower, 0.644
- CN1CCN(c2nccc3nc(-c4ccc(F)c(F)c4)[nH]c23)CC1 [MMV676260] — lower, 0.635
- C[C@H](C(N)=O)N1CCCC[C@H]1c1ccc(OCc2cccc(F)c2)cc1 [MMV676269] — lower, 0.212
- Cc1cnc(CCNC(=O)c2cc(-c3ccc(Cl)cc3)cs2)[nH]1 [MMV676350] — higher, 1.3
- Nc1ncc(Br)cc1-c1nc2cc(Cl)cnc2[nH]1 [MMV676358] — higher, 4.8
- Brc1c(-c2ccc3c(c2)OCO3)nc2ncccn12 [MMV676377] — higher, 2.9
- COc1cccc(OCC(=O)c2ccc(Br)cc2)c1 [MMV676379] — lower, -0.0278
- CC(=O)Nc1ccc(NC(=O)c2cc(-c3cc(Cl)ccc3O)[nH]n2)cc1 [MMV676380] — higher, 1.2
- Cn1ncc2c(N3CCOCC3)nc(NCCc3c[nH]c4ccccc34)nc21 [MMV676382] — lower, 0.7
- CCC(Sc1nc2ccccc2o1)C(=O)Nc1nccs1 (stereo not shown) [MMV676383] — lower, 0.8
- N#Cc1nc(-c2ccccc2F)oc1NCCc1ccccc1 [MMV676384] — higher, 1.0
- Cc1cccc(Cn2ccc(NC(=O)c3ccc4c(c3)OCO4)n2)c1 [MMV676386] — higher, 2.9
- COc1cccc(-n2nnnc2S(=O)(=O)Cc2ccccc2)c1 [MMV676388] — higher, 0.952
- O=C(c1[nH]nc2c1CCCC2)N1CCN(Cc2ccc3c(c2)OCO3)CC1 [MMV676389] — higher, 1.7
- O=C(Nc1cccnc1)c1c(O)c2cccc3c2n(c1=O)CC3 [MMV676395] — higher, 2.1
- CCS(=O)(=O)N(Cc1ccco1)Cc1cc2ccc(C)cc2nc1O [MMV676398] — lower, -0.167
- c1coc(CNc2nc(N3CCCCC3)nc3ccccc23)c1 [MMV676401] — higher, 1.9
- CC(C)n1ncc2c(C(=O)NCC(c3cccs3)N3CCOCC3)cc(-c3ccccc3)nc21 (stereo not shown) [MMV676406] — higher, 2.6
- O=C(COc1cccc(F)c1)Nc1nc(-c2ccccn2)cs1 [MMV676409] — lower, 0.449
- CC(Oc1ccccc1)C(=O)Nc1nc(-c2ccccn2)cs1 (stereo not shown) [MMV676411] — lower, 0.0833
- N#Cc1nc(-c2ccccc2)oc1S(=O)(=O)c1ccc(Cl)cc1 [MMV676412] — lower, 0.6
- Cc1ccc(NC(=O)CC2COc3ccccc3O2)cc1Cl (stereo not shown) [MMV676431] — higher, 2.3
- Cc1ccc2nc(Cl)c(CNCc3cccs3)cc2c1 [MMV676439] — lower, 0.278
- CC(C)c1ncc(-c2ccncc2)c([C@H]2CC[C@H](CNC(=O)c3cccnc3)CC2)n1 [MMV676442] — lower, 0.8
- O=C(NC1CCCCC1)N1CCN(Cc2ccc3c(c2)OCO3)CC1 [MMV676444] — higher, 1.3
- CCCn1c(CNc2ccccc2O)nc2ccccc21 [MMV676445] — lower, 0.8
- CCc1nc2ccccc2n1CC(O)COc1cc(C)ccc1Cl (stereo not shown) [MMV676449] — higher, 1.2
- CCOC(=O)c1cc(-c2csc(Nc3c(C)cc(C)cc3C)n2)on1 [MMV676461] — higher, 2.4
- NC(CC(=O)c1ccc(Cl)cc1Cl)C(Cl)(Cl)Cl (stereo not shown) [MMV676468] — lower, 0.8
- CCOc1ccc(OCC(=O)Nc2cc(C)cc(C)c2)cc1 [MMV676470] — lower, 0.2
- COc1cccc(OC)c1C(=O)Nc1ccc(Cl)c(-c2nc3ccccc3s2)c1 [MMV676472] — lower, 0.348
- Cc1cc(C)cc(COc2ccc3c(C)c(CCC(=O)O)c(=O)oc3c2C)c1 [MMV676476] — higher, 2.7
- CCc1c(C)nc(-n2nc(C)cc2NC(=O)c2ccccc2SC)[nH]c1=O [MMV676477] — lower, 0.7
- O=C(C1CCN(c2nnc(-n3cccc3)s2)CC1)N1CCC(Cc2ccccc2)CC1 [MMV676478] — lower, 0.661
- COC(=O)c1c(NC(=O)c2cc3ccccc3oc2=O)sc2c1CCN(Cc1ccccc1)C2 [MMV676480] — higher, 1.3
- O=C(Nc1nnc(S)s1)c1cc(Br)ccc1Cl [MMV676492] — the same, 0.9
- O=C(Nc1nnc(-c2ccc(Cl)s2)o1)c1ccc(Cl)s1 [MMV676501] — lower, 0.556
- Cc1ccc2oc(-c3cc(NC(=O)Cc4ccccc4)ccc3Cl)nc2c1 [MMV676509] — higher, 3.4
- O=C(Nc1nc(-c2ccccn2)cs1)c1cncn1-c1ccccc1 [MMV676512] — lower, 0.561
- O=C(c1cc2ccccc2o1)N1CCN(Cc2ccc3c(c2)OCO3)CC1 [MMV676520] — higher, 1.1
- COc1ccc(-c2cc(NC(=O)c3ccc(F)cc3Cl)ccc2OC)cc1 [MMV676526] — lower, 0.556
- Cc1cccc(NC(=O)c2cc(S(=O)(=O)N(C)c3ccc(F)cc3)ccc2Cl)n1 [MMV676528] — higher, 1.1
- COCC(C)NC(=O)CSc1ncnc2sc(-c3ccccc3)cc12 (stereo not shown) [MMV676536] — higher, 1.9
- COc1ccc(Nc2ccccc2NC(=O)c2ccc(O)nc2)cc1 [MMV676554] — higher, 1.8
- Cc1nnc(NCc2cccc(Cl)c2)c2ccccc12 [MMV676555] — the same, 0.9
- CC1=NN(c2nc3ccccc3s2)C(=O)C1Cc1cccc2ccccc12 (stereo not shown) [MMV676558] — higher, 3.8
- COc1ccc(-c2nc(-c3cccc(NC(=O)Cc4ccc(F)cc4)c3)no2)cc1OC [MMV676571] — higher, 3.5
- O=C(NC1=NCCS1)c1sc2cc(F)ccc2c1Cl [MMV676584] — higher, 1.1
- Nc1c2c(nc3sc4c(c13)CCCC4)CCCC2 [MMV676588] — lower, 0.449
- O=C(CCC1CCCCC1)Nc1cccc(-c2nnc(-c3ccco3)o2)c1 [MMV676589] — lower, 0.6
- CCCn1nnc(NC(=O)COc2ccc(C3CCCCC3)cc2)n1 [MMV676597] — lower, 0.551
- CC(C)(C)n1nc(Cc2cccc3ccccc23)c2c(N)ncnc21 [MMV676599] — lower, 0.6
- CO[C@@H](C(=O)N1Cc2[nH]nc(NC(=O)c3ccc(N4CCN(C)CC4)cc3)c2C1)c1ccccc1 [MMV676600] — lower, 0.6
- CC1COC2(CCN(c3nc(=O)c4cc(C(F)(F)F)cc([N+](=O)[O-])c4s3)CC2)O1 (stereo not shown) [MMV676603] — higher, 1.8
- Cc1ncc(-c2ccnc(Nc3ccc(S(C)(=O)=O)cc3)n2)n1C(C)C [MMV676604] — higher, 4.2
- C[C@]1(O)C[C@@H](c2nc(-c3ccc4ccc(-c5ccccc5)nc4c3)c3c(N)nccn32)C1 [MMV676605] — the same, 0.9
- O=C(c1ccc(NCCO)cc1)C1C[C@H]1c1ccc(Cl)cc1 (stereo partly shown) [MMV676877] — lower, 0.0
- CCn1cnc2c(Nc3cc(F)cc(F)c3)nc(C#N)nc21 [MMV676881] — lower, 0.536
- NC(=O)c1cc(-c2ccsc2)ccc1OCCOc1ccccc1 [MMV687138] — higher, 1.8
- CCCCS(=O)(=O)Nc1ccc2cnn(C)c2c1 [MMV687145] — higher, 1.4
- Cc1cc(C)c2cc(C(=O)NC3CCCCCCC3)[nH]c2c1 [MMV687146] — higher, 1.1
- COc1ccc(Cn2cnc3c(-c4ccco4)nc(Cl)nc32)cc1 [MMV687170] — higher, 1.0
- O=C(C1CCN(c2cc(-n3cccc3)ncn2)CC1)N1CCc2ccccc2C1 [MMV687172] — lower, 0.431
- CCc1ccc([C@@H]2C[C@H](C(F)(F)F)n3ncc(C(=O)NCc4ccc(OC)cc4)c3N2)cc1 [MMV687180] — higher, 1.9
- COc1ccc2nc(C)cc(OCC(=O)Nc3ccccc3OC)c2c1 [MMV687188] — higher, 1.7
- COc1ccc2nc(C)cc(OCC(=O)NCc3ccccc3)c2c1 [MMV687189] — lower, 0.0536
- CC(C)(C(=O)Nc1ccc(F)cc1)n1cc(-c2ccccc2F)cn1 [MMV687239] — lower, 0.467
- NC(=O)c1cc(Br)ccc1OCCOc1ccccc1 [MMV687243] — lower, 0.4
- CN1CCN(S(=O)(=O)c2ccc(-c3ccc4c(Nc5ccc6nn[nH]c6c5)ccnc4c3)cc2)CC1 [MMV687246] — higher, 2.8
- Nc1nc2ccc(-c3cncc(Oc4ccc(F)cc4)c3)cc2[nH]1 [MMV687248] — lower, 0.2
- Cn1c(=O)c2c(S(C)(=O)=O)snc2n(C)c1=O [MMV687251] — lower, 0.0729
- CCCCc1ccc(C(=O)Nc2nccc3ccccc23)nc1 [MMV687254] — lower, 0.0729
- CC(C)=CCC/C(C)=C\CNCCNC1C2CC3CC(C2)CC1C3 (stereo not shown) [MMV687273] — higher, 1.3
